What was measured:
[1] = Therapeutic index, IC50 for H9 cells to EC50 for HIV; format: cell-based; conditions: human, read-out: Ratio IC50/EC50
[2] = tested on: Human immunodeficiency virus; test: Antiviral activity against HIV replication in H9 cells; format: functional, organism-based; conditions: Human immunodeficiency virus 1, H9
[3] = tested on: H9; test: Cytotoxicity against H9 cells assessed as growth inhibition; format: cell-based; conditions: Homo sapiens

SMILES | selectivity ratio [1] | EC50 [2] | IC50 [3]
Cc1cc(=O)oc2c3c(ccc12)CC[C@H](OC(=O)C12CCC(C)(C(=O)O1)C2(C)C)[C@@H]3OC(=O)C12CCC(C)(C(=O)O1)C2(C)C (stereo partly specified) | 659 | 83 nM | 54400 nM
CC12CCC(C(=O)O[C@H]3CCc4ccc5ccc(=O)oc5c4[C@H]3OC(=O)C34CCC(C)(C(=O)O3)C4(C)C)(OC1=O)C2(C)C (stereo partly specified) | 841 | 68 nM | 57200 nM
Cc1cc(=O)oc2c3c(ccc12)CC(C)(C)[C@H](OC(=O)C12CCC(C)(C(=O)O1)C2(C)C)[C@@H]3OC(=O)C12CCC(C)(C(=O)O1)C2(C)C (stereo partly specified) | > 100 | < 390 nM | > 39400 nM
Cc1cn([C@H]2C[C@H](N=[N+]=[N-])[C@@H](CO)O2)c(=O)[nH]c1=O [ZIDOVUDINE] | 36500 | 13.7 nM | –
